Measurements: paper PMC3767463 (Journal of the American Chemical Society, 2013)

Columns and labels:
PC3 cells = assay: MTT cell viability; assay type: cell-based, human; settings: PC3 (non-functional p53), 0–100 μM, 48 h
DU145 cells = assay: MTT cell viability; assay type: cell-based, human; settings: DU145 (non-functional p53), 0–100 μM, 48 h
HBL100 cells = assay: MTT cell viability; settings: HBL100 normal breast epithelial cells, 48 h, triplicate
LNCaP cells = assay: Propidium iodide flow cytometric cell cycle assay; assay type: cell-based, human; settings: LNCaP cells treated 24 h; propidium iodide flow cytometry
HdmX level = assay: Western blot of LNCaP cell extracts; assay type: cell-based, human; settings: 48 h, cyclotides 50 μM
caspase-3/7 = assay: Caspase-3/7 assay in LNCaP cells; assay type: cell-based, human; settings: LNCaP cells treated 30 h
in vitro = settings: human, human serum
[1] = mice, MCo-PMI 40 mg/kg i.v. daily
p53 level = assay type: cell-based, human; settings: LNCaP; 50 μM MCo-PMI, 8–48 h; western blot

Molecule | Effect on cell viability (PC3 cells) | Effect on cell viability (DU145 cells) | EC50, cytotoxicity to non-cancerous cells (HBL100 cells) | Effect on cell cycle progression (LNCaP cells) | Effect on intracellular HdmX level (HdmX level) | Caspase-3/7 activation (caspase-3/7) | half-life (in vitro) | Association constant rate to human serum proteins | Dissociation constant rate from human serum proteins | Body weight throughout treatment [1] | Organs and tissues at necropsy [1] | Time of peak p53 level post-treatment (p53 level) | percent bound (serum proteins (human))
COc1ccc(C2=N[C@@H](c3ccc(Cl)cc3)[C@@H](c3ccc(Cl)cc3)N2C(=O)N2CCNC(=O)C2)c(OC(C)C)c1 [Nutlin-3, reference compound] | unaffected | unaffected | 33 ± 5 µM | depression of the S-phase fraction | – | – | – | – | – | – | – | – | –
CC[C@H](C)[C@@H]1NC(=O)[C@@H]2CSSC[C@@H]3NC(=O)[C@H](C(C)C)NC(=O)CNC(=O)CNC(=O)[C@H](C)NC(=O)[C@H](CO)NC(=O)[C@H](CC(C)C)NC(=O)[C@H](CC(C)C)NC(=O)[C@H](CC(N)=O)NC(=O)[C@H](Cc4c[nH]c5ccccc45)NC(=O)[C@H](Cc4ccc(O)cc4)NC(=O)[C@H](CCC(=O)O)NC(=O)[C@H](C)NC(=O)[C@H](Cc4ccccc4)NC(=O)[C@H](CO)NC(=O)[C@H]([C@@H](C)O)NC(=O)[C@@H]4CCCN4C(=O)[C@H](C)NC(=O)[C@H](CCCCN)NC(=O)[C@H](CO)NC(=O)[C@H](C)NC(=O)CNC(=O)[C@H](CO)NC(=O)CNC(=O)[C@H](CO)NC(=O)CNC(=O)[C@@H]4CSSC[C@H](NC(=O)[C@H](CC(=O)O)NC(=O)[C@H](CO)NC(=O)[C@H](CC(=O)O)NC(=O)[C@H](CCCNC(=N)N)NC(=O)[C@H](CCCNC(=N)N)NC(=O)[C@H](CSSC[C@H](NC1=O)C(=O)N[C@@H](CCCNC(=N)N)C(=O)NCC(=O)N[C@@H](CC(N)=O)C(=O)NCC(=O)N[C@@H](Cc1ccc(O)cc1)C(=O)N4)NC(=O)[C@H](CCCNC(=N)N)NC(=O)[C@H](CCC(N)=O)NC(=O)[C@H](CC(C)C)NC(=O)[C@H]([C@@H](C)CC)NC(=O)[C@H](CCCCN)NC(=O)[C@@H]1CCCN1C3=O)C(=O)N1CCC[C@H]1C(=O)NCC(=O)N[C@@H](C)C(=O)N2 [MCo-PMI] | unaffected | unaffected | – | depression of the S-phase fraction | downregulated | dose-dependent caspase-3 activation | 30 ± 4 h | 2400 M⁻¹ s⁻¹ | 0.022 s⁻¹ | maintained healthy weight | no gross abnormalities | 36 to 48 h | –
cyclo(SGSDGGVCPKILQRCRRDSDCPGACICRGNGYCG) (natural protein, disulfide (positions not given here)) [cyclotide Momordica cochinchinensis trypsin inhibitor-I] | – | – | – | – | – | – | – | – | – | – | – | – | 80%
